What was measured:
[1] = system: C-MYC (Hi-Myc)-overexpressing and spontaneous prostate cancer mouse model; assay: C-MYC (Hi-Myc)-overexpressing spontaneous prostate cancer mouse model, ENZ gavage before resistance; type: in vivo
Experimental: (§1) A C-MYC (Hi-Myc)-overexpressing and spontaneous prostate cancer mouse model was constructed. mPIN/Cancer transition was developed in mice at the age of 4 months, at which time the mice were randomly grouped into NC control group (gavaged with solvent) and ENZ administration group. The ENZ administration group was given 10 mg/Kg ENZ by gavage every three days for a total of 30 days, and then some of the mice were sacrificed by cervical dislocation and their prostates were taken for photographing and weighing. […] Afterwards, the rest of the mice continued to be administrated according to the above method for 60 days. A recurrence was found in the ENZ group, and the CRPC mice were successfully obtained. Afterwards, the mice (i.e., mice at the age of 7 months) were randomly grouped into NC control group (continuously gavaged with solvent), ENZ single drug group, nucleic acid drug siPRDX5-1 group, ENZ and siPRDX5-1 co-administration group, nucleic acid drug siPRDX5-16 group, ENZ and siPRDX5-16 co-administration group, nucleic acid drug siGPX4-1 group, ENZ and siGPX4-1 co-administration group, nucleic acid drug siGPX4-16 group, ENZ and siGPX4-16 co-administration group, nucleic acid drugs siPRDX5-16+siGPX4-16 group, and ENZ and siPRDX5-16+siGPX4-16 co-administration group. The corresponding administrations were performed. […]

PRDX5 enzyme activity = PRDX5 enzyme activity in prostate tissue of CRPC mice (thioredoxin system); type: in vivo, mouse; details: administration for 30 days, ENZ 10 mg/Kg gavage, siRNA 100 nM tail vein injection
Experimental: A C-MYC (Hi-Myc)-overexpressing and spontaneous prostate cancer mouse model was constructed. mPIN/Cancer transition was developed in mice at the age of 4 months, at which time the mice were randomly grouped into NC control group (gavaged with solvent) and ENZ administration group. The ENZ administration group was given 10 mg/Kg ENZ by gavage every three days for a total of 30 days, and then some of the mice were sacrificed by cervical dislocation and their prostates were taken for photographing and weighing. […] Afterwards, the rest of the mice continued to be administrated according to the above method for 60 days. A recurrence was found in the ENZ group, and the CRPC mice were successfully obtained. […]
Assay for PRDX5 enzyme activity: the PRDX5 enzyme activity was determined using the thioredoxin system. Specifically, the rate of H2O2 degradation was measured by detecting the reduction of A340 caused by NADPH oxidation. […]

LNCaP-DTP cells = assay: CCK8 cell survival, LNCaP-DTP cells; type: cell-based, human
Experimental: (§2) Further, drug-resistant LNCaP-DTP and MyC-CaP-DTP cells as well as 22Rv1 cells which are themselves ENZ-resistant were transfected with the modified #3-siPRDX5-1-16 or #3-siGPX4-1-16 or #3-siPRDX5-1-16+#3-siGPX4-1-16 synthesized in Example 3 through a CCK8 method, illustrating the in vitro antitumor effects of nucleic acid drugs in drug-resistant cells.
(§3) The drug-resistant LNCaP-DTP and MyC-CaP-DTP cells as well as 22Rv1 cells which are themselves ENZ-resistant were seeded in a 96-well plate containing fresh 1640 medium and attached. Subsequently, 1 to 16 siPRDX5, siGPX4, siPRDX5+siGPX4, and negative control si-neg were added, and the transfection mixture was sucked out after successful interference. The medium was replaced with a normal complete medium (1640 medium containing 10% fetal bovine serum and 1% double antibody) and continued to be cultured in the incubator for 24 h. Finally, a CCK8 assay was performed for determination and the cell survival was calculated by OD450 value.

CRPC mice = assay: Drug-resistant CRPC formed by continuous ENZ in C-MYC-overexpressing prostate cancer mice: prostate weight, HE staining; type: in vivo, mouse; details: CRPC mice after drug resistance and recurrence; every three days for 30 days; ENZ 10 mg/Kg gavage, siRNA 100 nM tail vein injection
Experimental: as §1

MyC-CaP-DTP cells = assay: CCK8 cell survival, MyC-CaP-DTP cells; type: cell-based, mouse
Experimental: as §2, §3

GPX4 gene = assay: qRT-PCR relative expression of GPX4 gene after siGPX4 transfection, LNCaP and LNCaP-DTP cells; type: cell-based, human; details: for mRNA expression level of GPX4: LNCaP and drug-resistant LNCaP-DTP cells together; for Relative expression level of GPX4 gene: qRT-PCR; for interference activity on GPX4 gene expression (in words): drug-resistant or non-drug-resistant LNCaP cells and MyC-CaP cells
Experimental: (§4) To screen for suitable siRNAs, the interference activity of the siRNAs designed in Example 1 was determined. • S1. LNCaP and MyC-CaP cells were seeded at 1×10^6 in a 10 cm cell culture dish. On the second day, the cells were attached and then treated with 50 μM enzalutamide (ENZ) for 9 days, during which the medium was replaced with a fresh drug-containing medium (1640 medium containing 50 µM ENZ) for culture every three days. The cells were collected. After the treatment for 9 days, the cells were drug-resistant (DTP cells) and were labeled as LNCaP-DTP cells and MyC-CaP-DTP cells, respectively. • S2. LNCaP, MyC-CaP, and LNCaP-DTP and MyC-CaP-DTP cells as collected in S1, were seeded in a 6 cm dish and a 10 cm dish that contain fresh complete medium (1640 medium containing 10% fetal bovine serum and 1% […]), attached, and then transfected with siPRDX5 and siGPX4 designed in Example 1, and then mRNA and protein were extracted. • S3. RNA level and protein level were determined by qRT-PCR and Western Blot assays, and siRNAs with interference activity were screened and obtained.
(§5) The results are shown in FIG. 2 and FIG. 3 as well as Tables 1 and 2. Using the same method as in Example 2, LNCaP and MyC-CaP cells as well as their derived LNCaP-DTP and MyC-CaP-DTP cells were treated with the above modified siRNAs. […] It is also found to be more efficient in interfering with human cells compared to mice.

PRDX5 gene = assay: qRT-PCR relative expression of PRDX5 gene after siPRDX5 transfection, LNCaP and LNCaP-DTP cells; type: cell-based, human; details: for mRNA expression level of PRDX5: LNCaP and drug-resistant LNCaP-DTP cells together; for Relative expression level of PRDX5 gene: qRT-PCR
Experimental: as §4, §5

GPX4 = assay: Western Blot / qRT-PCR expression of GPX4 after unmodified siGPX4; type: cell-based; details: unmodified siRNA; LNCaP and MyC-CaP cells (FIG. 1, FIG. 4)
Experimental: as §4

PRDX5 = assay: Western Blot / qRT-PCR expression of PRDX5 after unmodified siPRDX5; type: cell-based; details: unmodified siRNA; LNCaP and MyC-CaP cells (FIG. 1, FIG. 4)
Experimental: as §4

Compound | mRNA expression level of GPX4 (GPX4 gene) | Relative expression level of GPX4 gene (GPX4 gene; LNCaP cells) | Relative expression level of GPX4 gene (GPX4 gene; LNCaP-DTP cells) | mRNA expression level of PRDX5 (PRDX5 gene) | Relative expression level of PRDX5 gene (PRDX5 gene; LNCaP cells) | Relative expression level of PRDX5 gene (PRDX5 gene; LNCaP-DTP cells) | other results
CNC(=O)c1ccc(N2C(=S)N(c3ccc(C#N)c(C(F)(F)F)c3)C(=O)C2(C)C)cc1F [ENZ, Enzalutamide] | – | – | – | – | – | – | recurrence on continued administration ([1]; administration continued for 60 further days): recurrence; prostate weight compared to that of the NC control group ([1]; mice aged 4 months, 10 mg/Kg ENZ by gavage every three days for 30 days): reduced by half; PRDX5 enzyme activity relative to NC group (PRDX5 enzyme activity): 4.56; growth inhibition (in words) (LNCaP-DTP cells): no longer has a significant inhibitory effect; Mean mouse prostate weight (CRPC mice): 66.67 mg; growth inhibition (in words) (MyC-CaP-DTP cells): no longer has a significant inhibitory effect
#1-siGPX4: unmodified double-stranded siRNA against GPX4, SEQ ID NO. 11 and SEQ ID NO. 12 (chain 1 GUGAGGCAAGACCGAAGUAAACUAC; chain 2 GUAGUUUACUUCGGUCUUGCCUCACUG; unmodified RNA) | around 0.73 | 0.700 | 0.735 | – | – | – | –
#1-siPRDX5: unmodified double-stranded siRNA against PRDX5, SEQ ID NO. 7 and SEQ ID NO. 8 (chain 1 AGACAGACUUAUUACUAGAUGAUUC; chain 2 GAAUCAUCUAGUAAUAAGUCUGUCUCC; chain 1: all phosphodiester, sugars by position and methylation of C not given here; chain 2: unmodified RNA) | – | – | – | around 0.60 | 0.605 | 0.621 | –
#2-siGPX4: unmodified double-stranded siRNA against GPX4, SEQ ID NO. 13 and SEQ ID NO. 14 (chain 1 CUACAACGUCAAAUUCGAUAUGUUC; chain 2 GAACAUAUCGAAUUUGACGUUGUAGCC; chain 1: all phosphodiester, sugars by position not given here; chain 2: RNA, phosphodiester; further chemistry not fully specified) | around 0.73 | 0.730 | 0.755 | – | – | – | –
#2-siPRDX5: unmodified double-stranded siRNA against PRDX5, SEQ ID NO. 9 and SEQ ID NO. 10 (chain 1 GGCCAGAUUUCUGCAAUAAACACUU; chain 2 AAGUGUUUAUUGCAGAAAUCUGGCCAA; chain 1: all phosphodiester, sugars by position and methylation of C not given here; chain 2: unmodified RNA) | – | – | – | around 0.60 | 0.580 | 0.629 | –
#3-siGPX4: unmodified double-stranded siRNA against GPX4, SEQ ID NO. 3 and SEQ ID NO. 4 (chain 1 ACAACGUCAAAUUCGAUAUGU; chain 2 ACAUAUCGAAUUUGACGUUGUAC; unmodified RNA) | around 0.21 | 0.180 | 0.245 | – | – | – | interference activity on GPX4 gene expression (in words) (GPX4 gene): superior interference activity than the #4-siGPX4; expression of GPX4, including mRNA level and protein level (GPX4): substantially reducing the expression of GPX4
#3-siPRDX5: unmodified double-stranded siRNA against PRDX5, SEQ ID NO. 1 and SEQ ID NO. 2 (chain 1 CAGACUUAUUACUAGAUGAUU; chain 2 AAUCAUCUAGUAAUAAGUCUGUC; unmodified RNA) | – | – | – | around 0.16 | 0.125 | 0.197 | interference activity on PRDX5 gene expression (in words) (PRDX5 gene; drug-resistant or non-drug-resistant LNCaP cells and MyC-CaP cells): superior; expression of PRDX5, including mRNA level and protein level (PRDX5): substantially reducing the expression of PRDX5
#4-siGPX4: unmodified double-stranded siRNA against GPX4, SEQ ID NO. 5 and SEQ ID NO. 6 (chain 1 GUGAGGCAAGACCGAAGUAAA; chain 2 UUUACUUCGGUCUUGCCUCACUG; unmodified RNA) | around 0.24 | 0.220 | 0.265 | – | – | – | interference activity on GPX4 gene expression (in words) (GPX4 gene): superior; expression of GPX4, including mRNA level and protein level (GPX4): substantially reducing the expression of GPX4

Source: patent US20250066794A1, “Application of PRDX5 and GPX4 Genes in Preparation of Drugs for Castration-resistant Prostate Cancer” (Jiangnan University, priority 2023, published 2025)
